In assay [1] the target is blood protein factor VIII (Homo sapiens, UniProt P00451). The conditions noted are these: cited from earlier work.
Assay [2] has as its system virus particles. Put plainly: electron microscope study of virus particles before and after inactivation. The conditions noted are these: inactivation for 60 min, 1 min and 30 seconds.
In assay [3] the test system is Sinbis, Sendai and VSV viruses. The conditions noted are these: 4° C.; cited from earlier work.
Assay [4] relates to HIV virus. The conditions noted are these: 5 minute contact, room temperature; ether removed by distillation at 50-52° C.; cited from earlier work.

Consider 3 molecules from patent publication US20030133929A1 (priority 2002, published 2003).

blood protein factor VIII, sequence (P00451 20-2351): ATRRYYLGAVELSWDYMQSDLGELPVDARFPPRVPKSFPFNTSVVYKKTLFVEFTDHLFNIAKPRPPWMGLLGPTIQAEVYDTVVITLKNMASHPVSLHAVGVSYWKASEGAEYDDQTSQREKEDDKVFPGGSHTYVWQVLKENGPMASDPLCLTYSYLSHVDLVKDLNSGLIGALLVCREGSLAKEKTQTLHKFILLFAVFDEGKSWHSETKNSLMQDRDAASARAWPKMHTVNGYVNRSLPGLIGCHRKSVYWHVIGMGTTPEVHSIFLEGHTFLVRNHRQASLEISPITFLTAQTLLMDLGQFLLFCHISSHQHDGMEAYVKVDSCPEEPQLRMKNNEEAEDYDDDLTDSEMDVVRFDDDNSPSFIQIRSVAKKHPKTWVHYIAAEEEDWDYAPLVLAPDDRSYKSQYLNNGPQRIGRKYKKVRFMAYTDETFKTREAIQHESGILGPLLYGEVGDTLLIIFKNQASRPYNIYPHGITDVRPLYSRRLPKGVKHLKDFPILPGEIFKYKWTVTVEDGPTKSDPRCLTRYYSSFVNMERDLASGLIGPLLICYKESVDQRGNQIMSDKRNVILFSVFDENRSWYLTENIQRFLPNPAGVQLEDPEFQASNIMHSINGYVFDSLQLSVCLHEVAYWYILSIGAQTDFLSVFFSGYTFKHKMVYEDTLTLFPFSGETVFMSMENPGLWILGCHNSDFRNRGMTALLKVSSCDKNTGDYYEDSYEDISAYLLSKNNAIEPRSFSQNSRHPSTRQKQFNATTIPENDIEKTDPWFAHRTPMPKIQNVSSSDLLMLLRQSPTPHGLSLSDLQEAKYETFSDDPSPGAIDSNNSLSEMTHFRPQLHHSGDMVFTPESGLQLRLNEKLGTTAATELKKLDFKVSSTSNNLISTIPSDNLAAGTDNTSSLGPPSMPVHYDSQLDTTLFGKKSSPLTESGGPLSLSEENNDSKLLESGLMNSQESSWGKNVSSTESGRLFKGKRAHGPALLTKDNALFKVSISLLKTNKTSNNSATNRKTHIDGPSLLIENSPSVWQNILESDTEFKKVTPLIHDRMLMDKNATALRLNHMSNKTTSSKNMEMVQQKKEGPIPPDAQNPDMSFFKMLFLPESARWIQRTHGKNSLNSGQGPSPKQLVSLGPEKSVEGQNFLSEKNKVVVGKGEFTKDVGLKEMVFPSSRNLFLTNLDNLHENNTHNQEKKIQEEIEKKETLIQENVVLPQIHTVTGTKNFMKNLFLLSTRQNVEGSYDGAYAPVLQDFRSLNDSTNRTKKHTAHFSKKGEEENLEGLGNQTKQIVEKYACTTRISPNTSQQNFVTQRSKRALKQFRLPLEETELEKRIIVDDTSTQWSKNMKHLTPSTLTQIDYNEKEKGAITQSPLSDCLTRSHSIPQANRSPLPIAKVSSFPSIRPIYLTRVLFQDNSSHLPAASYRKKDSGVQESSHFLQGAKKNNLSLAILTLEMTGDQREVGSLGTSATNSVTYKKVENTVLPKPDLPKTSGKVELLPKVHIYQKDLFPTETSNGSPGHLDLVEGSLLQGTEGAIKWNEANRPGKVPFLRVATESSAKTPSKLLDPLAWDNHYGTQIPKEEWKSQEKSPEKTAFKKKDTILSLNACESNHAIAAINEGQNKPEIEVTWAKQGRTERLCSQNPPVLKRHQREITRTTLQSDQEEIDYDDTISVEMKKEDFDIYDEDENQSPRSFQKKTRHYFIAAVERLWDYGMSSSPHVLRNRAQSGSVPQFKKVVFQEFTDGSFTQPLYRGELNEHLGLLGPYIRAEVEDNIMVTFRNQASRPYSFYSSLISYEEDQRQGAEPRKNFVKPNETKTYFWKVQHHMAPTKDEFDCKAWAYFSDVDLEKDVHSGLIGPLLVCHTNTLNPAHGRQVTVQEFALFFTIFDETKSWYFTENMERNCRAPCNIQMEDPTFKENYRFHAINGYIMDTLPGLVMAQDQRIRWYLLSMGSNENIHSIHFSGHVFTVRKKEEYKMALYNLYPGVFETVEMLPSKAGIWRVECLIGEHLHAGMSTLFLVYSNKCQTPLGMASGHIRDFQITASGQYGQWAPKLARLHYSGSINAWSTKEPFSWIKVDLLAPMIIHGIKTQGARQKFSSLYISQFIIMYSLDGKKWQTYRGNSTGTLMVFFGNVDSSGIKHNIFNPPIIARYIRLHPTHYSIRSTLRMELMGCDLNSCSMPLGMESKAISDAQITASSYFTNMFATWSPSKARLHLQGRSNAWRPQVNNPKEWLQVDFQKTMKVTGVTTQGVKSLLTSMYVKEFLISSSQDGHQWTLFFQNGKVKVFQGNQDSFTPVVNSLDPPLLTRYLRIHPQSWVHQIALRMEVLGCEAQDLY

Consider `O=C1CCO1` [β-propiolactone], for which the “inactivation of factor VIII” value in assay [1] is “up to 75%”. Consider `CC(C)OC(C)C` [DIPE, di-isopropyl ether], for which the “infectivity or visible virus particles by EM” value in assay [2] is recorded as “no infectivity or visible virus particles detected”. Take `CCOCC` [diethyl ether]: the “time to inactivate these viruses” value in assay [3] is listed as “many hours”. Also, the “inactivation of the HIV virus” value in assay [4] was “complete inactivation”.
